In ChEMBL document CHEMBL6087426, “Design, synthesis and bioactivity evaluation of cinnamic acid derivatives as potential anti-inflammatory agents against LPS-induced acute lung injury” (Bioorg Med Chem Lett, 2025):
Activity calls are given as the source filed them. The rule behind the calls is not given here.

How the values were obtained:
[1] = tested on: J774.A1; assay: Anti-inflammatory activity against mouse J774.A1 cells assessed as inhibition of LPS-induced IL-6 production at 10 uM preincubated for 30 mins followed by LPS stimulation for 24 hrs by ELISA relative to control; assay type: functional; settings: time 24.5 hrs
[2] = tested on: J774.A1; assay: Cytotoxicity against mouse J774.A1 cells assessed as cell survival at 10 uM by MTT assay; assay type: toxicity, cell-based; settings: j774.a1, 10 µM
[3] = tested on: Mus musculus; assay: Anti-inflammatory activity in C57BL/6 mouse assessed as decrease in LPS-induced TNF-alpha level in serum at 20 mg/kg pretreated for 30 mins followed by LPS stimulation for 6 hrs by ELISA; assay type: functional, organism-based; settings: time 6.5 hrs
[4] = tested on: Mus musculus; assay: Anti-inflammatory activity in C57BL/6 mouse assessed as decrease in LPS-induced interstitial edema in lung tissue at 20 mg/kg pretreated for 30 mins followed by LPS stimulation for 6 hrs by H and E staining based analysis; assay type: functional, organism-based; settings: time 6.5 hrs
[5] = tested on: Mus musculus; assay: Anti-inflammatory activity in C57BL/6 mouse assessed as decrease in LPS-induced thickened alveolar septa in lung tissue at 20 mg/kg pretreated for 30 mins followed by LPS stimulation for 6 hrs by H and E staining based analysis; assay type: functional, organism-based; settings: time 6.5 hrs
[6] = tested on: Mus musculus; assay: Anti-inflammatory activity in C57BL/6 mouse assessed as decrease in LPS-induced TNF-alpha level in BALF at 20 mg/kg pretreated for 30 mins followed by LPS stimulation for 6 hrs by ELISA; assay type: functional, organism-based; settings: time 6.5 hrs
[7] = tested on: Mus musculus; assay: Anti-inflammatory activity in C57BL/6 mouse assessed as decrease in LPS-induced wet to dry ratio in lung tissue at 20 mg/kg pretreated for 30 mins followed by LPS stimulation for 6 hrs; assay type: functional, organism-based; settings: time 6.5 hrs
[8] = tested on: Mus musculus; assay: Anti-inflammatory activity in C57BL/6 mouse assessed as decrease in LPS-induced destruction in lung tissue at 20 mg/kg pretreated for 30 mins followed by LPS stimulation for 6 hrs by H and E staining based analysis; assay type: functional, organism-based; settings: time 6.5 hrs
[9] = tested on: Mus musculus; assay: Anti-inflammatory activity in C57BL/6 mouse assessed as decrease in LPS-induced IL-6 level in serum at 20 mg/kg pretreated for 30 mins followed by LPS stimulation for 6 hrs by ELISA; assay type: functional, organism-based; settings: time 6.5 hrs
[10] = tested on: Mus musculus; assay: Anti-inflammatory activity in C57BL/6 mouse assessed as decrease in LPS-induced IL-6 level in BALF at 20 mg/kg pretreated for 30 mins followed by LPS stimulation for 6 hrs by ELISA; assay type: functional, organism-based; settings: time 6.5 hrs
[11] = tested on: Mus musculus; assay: Anti-inflammatory activity in C57BL/6 mouse assessed as decrease in LPS-induced total protein level in BALF at 20 mg/kg pretreated for 30 mins followed by LPS stimulation for 6 hrs; assay type: functional, organism-based; settings: time 6.5 hrs
[12] = tested on: Mus musculus; assay: Anti-inflammatory activity in C57BL/6 mouse assessed as decrease in LPS-induced pulmonary congestion in lung tissue at 20 mg/kg pretreated for 30 mins followed by LPS stimulation for 6 hrs by H and E staining based analysis; assay type: functional, organism-based; settings: time 6.5 hrs
[13] = tested on: Mus musculus; assay: Anti-inflammatory activity in C57BL/6 mouse assessed as decrease in LPS-induced macrophage infiltration in lung tissue at 20 mg/kg pretreated for 30 mins followed by LPS stimulation for 6 hrs by IHC analysis; assay type: functional, organism-based; settings: time 6.5 hrs
[14] = tested on: Mus musculus; assay: Anti-inflammatory activity in C57BL/6 mouse assessed as decrease in LPS-induced inflammatory infiltration in lung tissue at 20 mg/kg pretreated for 30 mins followed by LPS stimulation for 6 hrs by H and E staining based analysis; assay type: functional, organism-based; settings: time 6.5 hrs
[15] = tested on: J774.A1; assay: Anti-inflammatory activity against mouse J774.A1 cells assessed as inhibition of LPS-induced IL-6 production preincubated for 30 mins followed by LPS stimulation for 24 hrs by ELISA; assay type: functional, cell-based

O=C(/C=C/c1ccccc1)Nc1ncc(-c2ccc(C3CCCCC3)cc2)s1
inhibition at 10 µM [1]: 51.9%

O=C(O)/C=C/c1ccccc1 [CINNAMIC ACID]
inhibition at 10 µM [1]: 26.4%

COc1cc(-c2cnc(NC(=O)/C=C/c3ccccc3)s2)cc(OC)c1OC
inhibition at 10 µM [1]: 72.7% | Activity [2]: Non-toxic

COc1ccc(-c2csc(NC(=O)c3cccc(F)c3)n2)cc1OC
inhibition at 10 µM [1]: 19.5%

O=C(/C=C/c1ccccc1)Nc1ncc(-c2ccc(Br)cc2)s1
inhibition at 10 µM [1]: 21.6%

O=C(/C=C/c1ccccc1)Nc1ncc(-c2cccc([N+](=O)[O-])c2)s1
inhibition at 10 µM [1]: 36.5%

COc1ccc(-c2cnc(NC(=O)/C=C/c3ccccc3)s2)cc1OC
inhibition at 10 µM [1]: 53%

COc1ccc(-c2csc(NC(=O)c3ccc(Cl)c([N+](=O)[O-])c3)n2)cc1OC
inhibition at 10 µM [1]: 64.1% | Activity [2]: Toxic

COc1ccc(-c2csc(NC(=O)c3ccc(F)cc3)n2)cc1OC
inhibition at 10 µM [1]: 51.2%

COc1ccc(-c2csc(NC(=O)c3ccccc3C)n2)cc1OC
inhibition at 10 µM [1]: 36.8%

COc1ccc(-c2csc(NC(=O)c3cccc(Br)c3)n2)cc1OC
inhibition at 10 µM [1]: 19.8%

CCOc1ccc(-c2cnc(NC(=O)/C=C/c3ccccc3)s2)cc1
inhibition at 10 µM [1]: 37.6%

O=C(/C=C/c1ccccc1)Nc1nc2ccccc2s1
Activity [3]: Active | Activity [4]: Active | Activity [5]: Active | Activity [6]: Active | Activity [7]: Active | Activity [8]: Active | Activity [9]: Active | inhibition at 10 µM [1]: 79.6% | Activity [10]: Active | Activity [11]: Active | Activity [12]: Active | Activity [13]: Active | Activity [14]: Active | IC50 [15]: 1060 nM | inhibition ([15]; dose 1.25-10 µM, time 24.5 hrs): Dose-dependent-effect | Activity [2]: Non-toxic

COc1ccc(-c2csc(NC(=O)c3ccc(F)cc3Cl)n2)cc1OC
inhibition at 10 µM [1]: 23.3%

C[C@@H]1C[C@H]2[C@@H]3CCC4=CC(=O)C=C[C@]4(C)[C@@]3(F)[C@@H](O)C[C@]2(C)[C@@]1(O)C(=O)CO
Activity [3]: Active | Activity [6]: Active | Activity [7]: Active | Activity [9]: Active | Activity [10]: Active | Activity [11]: Active | Activity [13]: Active

COc1ccc(-c2csc(NC(=O)c3ccc(C)cc3)n2)cc1OC
inhibition at 10 µM [1]: 38.8%
